Results published in patent US4282248A, “Pinene derivatives and pharmaceutical compositions containing the same” (priority 1978, dated 1981).

Assays:
Assay type in all cases: in vivo
[1] = acetic acid induced writhing test (mouse writhing); conditions: for ED50: Mus musculus
Protocol: (§1) The analgetic activity was tested by the acetic acid induced writhing test (Sofia et al., J. Pharmacol.Expt.Therap. 18, 646, 1973), by the tail flick test (Grotto et al., Arch Intern.Pharmacodyn. 170, 257, 1967) and by the foot pressure test (Randall and Selito, Arch, Int. Pharmacodyn. 409, 1957). The central nervous system action was tested by the mouse ring test (Pertwee, Brit. J. Pharmacol. 46, 753, 1972).

[2] = tail flick test (mouse tail flick); conditions: for ED50: Mus musculus
Protocol: as §1

[3] = foot pressure test (rat foot pressure); conditions: for ED50: Rattus norvegicus
Protocol: as §1

| SMILES | ED50 [1] [mg/kg] | ED50 [2] [mg/kg] | ED50 [3] [mg/kg] | Mouse writhing ED50 [1] [mg/kg] | Mouse tail flick ED50 [2] | Rat foot pressure ED50 [3] |
| --- | --- | --- | --- | --- | --- | --- |
| CCCCCCC(C)(C)c1cc(OC(C)=O)c(C2C=C(COC(C)=O)C3CC2C3(C)C)c(OC(C)=O)c1 (single isomer, unassigned) [VIIIa(+), 4-Trans-[2-(5-(1,1-dimethylheptyl)-resorcyl)]-10-hydroxy-pin-2-ene triacetate] | 18 | 50 | 50 |  |  |  |
| CCCCCCC(C)(C)c1cc(OC(C)=O)c(C2C=C(COC(C)=O)C3CC2C3(C)C)c(OC(C)=O)c1 (single isomer, unassigned) [VIIIa(-), 4-trans-[2-(5-(1,1-dimethylheptyl)-resorcyl)]-10-hydroxy-pin-2-ene, triacetate] |  |  |  | 18 | 30 mg/kg | 50 mg/kg |
| CCCCCC(C)C(C)c1cc(OC(C)=O)c(C2C=C(COC(C)=O)C3CC2C3(C)C)c(OC(C)=O)c1 (single isomer, unassigned) [VIIIb(+), 4-Trans-[2-(5-(1,2-dimethylheptyl-resorcyl)]-10-hydroxy-pin-2-ene, triacetate] | 10 | 50 | 50 |  |  |  |
| CCCCCC(C)C(C)c1cc(OC(C)=O)c(C2C=C(COC(C)=O)C3CC2C3(C)C)c(OC(C)=O)c1 (single isomer, unassigned) [VIIIb(-), 4-trans-[2-(5-(1,2-dimethylpheptyl)]-resorcyl)-10-hydroxy-pin-2-ene, triacetate] |  |  |  | 10 | 30 mg/kg | 50 mg/kg |
| CCCCCCC(C)(C)c1cc(OC(C)=O)c(C2C=C(COC(=O)C(C)(C)C)C3CC2C3(C)C)c(OC(C)=O)c1 (single isomer, unassigned) [VIIIc(+)] | 25 | > 50 | > 50 |  |  |  |
| CCCCCCC(C)(C)c1cc(OC(C)=O)c(C2C=C(COC(=O)C(C)(C)C)C3CC2C3(C)C)c(OC(C)=O)c1 (single isomer, unassigned) [VIIIc(-)] |  |  |  | 25 | > 50 mg/kg | > 50 mg/kg |
| CCCCCC(C)C(C)c1cc(OC(C)=O)c(C2C=C(COC(=O)C(C)(C)C)C3CC2C3(C)C)c(OC(C)=O)c1 (single isomer, unassigned) [VIIId(+), 4-trans-[2-(5-(1,2-dimethylheptyl)-resorcyl diacetate)]-10-hydroxy-pin-2-ene-10-pivalate] | 25 | > 50 | > 50 |  |  |  |
| CCCCCC(C)C(C)c1cc(OC(C)=O)c(C2C=C(COC(=O)C(C)(C)C)C3CC2C3(C)C)c(OC(C)=O)c1 (single isomer, unassigned) [VIIId(-), 4-trans-[2-(5-(1,2-dimethylheptyl)-resorcyl diacetate)]-10-hydroxy-pin-2-ene-10-pivalate] |  |  |  | 25 | > 50 mg/kg | > 50 mg/kg |
| CCCCCCC(C)(C)c1cc(O)c(C2C=C(CO)C3CC2C3(C)C)c(O)c1 (single isomer, unassigned) [VIIa(+), 4-Trans-[2-(5-(1,1-dimethylheptyl)-resorcyl)]-10-hydroxy-pin-2-ene] | 5 |  | 15 |  | 30 mg/kg |  |
| CCCCCCC(C)(C)c1cc(O)c(C2C=C(CO)C3CC2C3(C)C)c(O)c1 (single isomer, unassigned) [VIIa(-), 4-trans-[2-(5-(1,1-dimethylheptyl)-resorcyl)]-10-hydroxy-pin-2-ene] |  |  |  | 7 | 6 mg/kg | 25 mg/kg |
| CCCCCC(C)C(C)c1cc(O)c(C2C=C(CO)C3CC2C3(C)C)c(O)c1 (single isomer, unassigned) [VIIb(+), 4-Trans[2-(5-(1,2-dimethylheptyl)-resorcyl)]-10-hydroxy-pin-2-ene] | 5 |  | 15 |  | 30 mg/kg |  |
| CCCCCC(C)C(C)c1cc(O)c(C2C=C(CO)C3CC2C3(C)C)c(O)c1 (single isomer, unassigned) [VIIb(-), 4-Trans-[2-(5-(1,2-dimethyheptyl)-resorcyl)]-10-hydroxy-pin-2-ene] |  |  |  | 7 | 6 mg/kg | 25 mg/kg |
| CCCCCCC(C)(C)c1cc(O)c(C2C=C(COC(C)=O)C3CC2C3(C)C)c(O)c1 (single isomer, unassigned) [VIa(+)] | 10 |  | 35 |  | 30 mg/kg |  |
| CCCCCCC(C)(C)c1cc(O)c(C2C=C(COC(C)=O)C3CC2C3(C)C)c(O)c1 (single isomer, unassigned) [VIa(-)] |  |  |  | 10 | 10 mg/kg | 25 mg/kg |
| CCCCCC(C)C(C)c1cc(O)c(C2C=C(COC(C)=O)C3CC2C3(C)C)c(O)c1 (single isomer, unassigned) [VIb(+)] | 10 |  | 35 |  | 30 mg/kg |  |
| CCCCCC(C)C(C)c1cc(O)c(C2C=C(COC(C)=O)C3CC2C3(C)C)c(O)c1 (single isomer, unassigned) [VIb(-)] |  |  |  | 10 | 10 mg/kg | 25 mg/kg |
| CCCCCCC(C)(C)c1cc(O)c(C2C=C(COC(=O)C(C)(C)C)C3CC2C3(C)C)c(O)c1 (single isomer, unassigned) [VIc(+)] | 10 |  | 30 |  |  |  |
| CCCCCCC(C)(C)c1cc(O)c(C2C=C(COC(=O)C(C)(C)C)C3CC2C3(C)C)c(O)c1 (single isomer, unassigned) [VIc(-)] |  |  |  | < 10 | 10 mg/kg | 30 mg/kg |
| CCCCCC(C)C(C)c1cc(O)c(C2C=C(COC(=O)C(C)(C)C)C3CC2C3(C)C)c(O)c1 (single isomer, unassigned) [VId(+), 4-trans-[2-(5-(1,2-dimethylheptyl)-resorcyl)]-10-hydroxy-pin-2-ene, 10 pivalate] | 10 |  | 30 |  |  |  |
| CCCCCC(C)C(C)c1cc(O)c(C2C=C(COC(=O)C(C)(C)C)C3CC2C3(C)C)c(O)c1 (single isomer, unassigned) [VId(-), 4-trans-[2-(5-(1,2-dimethylheptyl)-resorcyl)]-10-hydroxy-pin-2-ene, 10 pivalate] |  |  |  | < 10 | 10 mg/kg | 30 mg/kg |
| CCCCCC(C)C(C)c1cc(O)c(C2CC(C)C3CC2C3(C)C)c(O)c1 (single isomer, unassigned) [Xb(-), 4-Trans-[-(5-(1,2-dimethylheptyl)-resorcyl)]-pinane] | 6 | ~50 | ~50 |  |  |  |
| CCCCCCC(C)(C)c1cc(O)c(C2CC(C)C3CC2C3(C)C)c(O)c1 (stereo not drawn) [Xa(+), 4-Trans-[2-(5-(1,1-dimethylheptyl)-resorcyl)]-pinane] |  |  |  | 15 | ~ 50 mg/kg | ~ 50 mg/kg |
| CCCCCCC(C)(C)c1cc(O)c(C2CC(C)C3CC2C3(C)C)c(O)c1 (stereo not drawn) [Xa(-), 4-trans-[2-(5-(1,1-dimethylheptyl)-resorcyl)]-pinane] |  |  |  | 9 | ~ 50 mg/kg | ~ 50 mg/kg |
| CCCCCC(C)C(C)c1cc(O)c(C2CC(C)C3CC2C3(C)C)c(O)c1 (stereo not drawn) [Xb(+), 4-Trans-[-(5-(1,2-dimethylheptyl)-resorcyl)]-pinane] |  |  |  | 6 | ~ 50 mg/kg | ~ 50 mg/kg |
